Measurements from publication PMC4746629, “Small-molecule inhibition of PTPRZ reduces tumor growth in a rat model of glioblastoma” (Scientific Reports, 2016).
Entries after “also recorded” stand apart in the source; their conditions may differ.

Tests used:
PTPRZ-ICR [1] = molecular target: T1, PTPRZ-ICR (Homo sapiens, UniProt P23471, DEL1723-1729); assay: In vitro dephosphorylation assay, single concentration of SCB4380 analogues; format: biochemical; design: PTPRZ (ICR, amino acid residues 1698-2315); FLAG (followed by HRV 3C site) (N, cleaved yes); made in house; host or cells: silkworm (Bombyx mori) pupae, BmNPV baculovirus; conditions: compound 10 μM, substrate 20 μM, human PTPRZ-ICR 0.1 nM
T1 sequence (P23471 1698-2308 isoform P23471-2 limits assumed, stated change not applied): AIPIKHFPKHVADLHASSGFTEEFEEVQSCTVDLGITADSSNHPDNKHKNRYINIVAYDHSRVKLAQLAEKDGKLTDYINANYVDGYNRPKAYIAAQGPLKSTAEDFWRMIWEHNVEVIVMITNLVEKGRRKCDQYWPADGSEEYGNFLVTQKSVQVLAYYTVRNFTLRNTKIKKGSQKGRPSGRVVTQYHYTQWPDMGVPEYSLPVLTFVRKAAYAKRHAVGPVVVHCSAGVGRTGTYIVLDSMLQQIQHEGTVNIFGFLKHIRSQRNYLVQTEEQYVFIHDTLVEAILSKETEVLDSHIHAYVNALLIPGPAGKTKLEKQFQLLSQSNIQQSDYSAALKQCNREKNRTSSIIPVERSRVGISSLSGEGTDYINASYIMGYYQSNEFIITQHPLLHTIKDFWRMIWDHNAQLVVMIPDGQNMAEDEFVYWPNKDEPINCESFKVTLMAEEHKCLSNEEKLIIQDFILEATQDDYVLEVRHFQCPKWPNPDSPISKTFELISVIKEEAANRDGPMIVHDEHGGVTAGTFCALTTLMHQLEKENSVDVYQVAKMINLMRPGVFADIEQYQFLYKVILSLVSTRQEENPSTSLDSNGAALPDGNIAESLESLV
Source text: No significant effects were detected with compounds 7 to 10. TEXT PRINTED IN THE PICTURE: (B) 7: (no inhibition) | (B) 8: (no inhibition) | (B) 9: (no inhibition) | (B) 10: (no inhibition)

PTPRZ-ICR N1758D mutant = PTPRZ-ICR N1758D mutant (Homo sapiens, UniProt P23471, DEL1723-1729/N1758D); assay: Inhibitor sensitivity of site-directed mutant, pCAP assay; conditions: compounds 10 μM, 20 μM pCAP-GIT1_549–556
Sequence of PTPRZ-ICR N1758D mutant (P23471 1698-2308 isoform P23471-2 N1751D limits assumed): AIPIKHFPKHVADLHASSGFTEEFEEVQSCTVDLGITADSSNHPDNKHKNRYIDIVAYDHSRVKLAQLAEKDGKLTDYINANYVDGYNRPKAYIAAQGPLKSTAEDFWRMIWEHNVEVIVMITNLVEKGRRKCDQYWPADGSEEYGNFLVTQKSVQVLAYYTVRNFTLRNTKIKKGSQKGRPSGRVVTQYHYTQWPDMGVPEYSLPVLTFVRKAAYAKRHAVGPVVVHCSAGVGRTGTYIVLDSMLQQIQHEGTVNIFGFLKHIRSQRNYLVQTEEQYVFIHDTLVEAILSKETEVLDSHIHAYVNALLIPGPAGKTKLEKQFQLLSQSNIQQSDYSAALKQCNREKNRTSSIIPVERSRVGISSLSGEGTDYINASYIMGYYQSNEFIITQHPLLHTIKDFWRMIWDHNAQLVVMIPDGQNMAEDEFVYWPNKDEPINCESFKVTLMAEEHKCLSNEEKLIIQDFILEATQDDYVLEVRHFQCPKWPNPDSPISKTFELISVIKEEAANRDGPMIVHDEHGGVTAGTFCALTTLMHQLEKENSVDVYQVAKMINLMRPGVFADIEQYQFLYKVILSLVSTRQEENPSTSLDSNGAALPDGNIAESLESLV
Description: (G) Inhibitor sensitivity.
(§1) Two hundred microliters of pCAP-peptide substrates (20 μM) in a three-component buffer of pH 7.0 (100 mM acetate, 50 mM Tris, and 50 mM Bis-Tris) containing 5 mM DTT and 0.01% (v/v) Brij-35 were preincubated in a cuvette at room temperature. The reaction was initiated by adding 2 μl of an enzyme solution, and incubated for ~100 s; the amount of the enzyme was adjusted to give a convenient rate. Compounds were then added to the same cuvette at a 1/100 volume. In each experiment, the hydrolysis of the pCAP residue was continuously monitored as an increase in fluorescence at 460 nm (excitation at 334 nm) using a spectrofluorometer (FI-4500, Hitachi). We measured the slope of the linear increase of the fluorescence signal as an indicator of catalytic activity, which was obtained during the 40 s before and after the addition of a compound. The inhibitory effects of each compound were determined by the ratio of the activities, and indicated as the relative value to that of DMSO control.
(§2) respective full-length clones, and the cDNA fragments were fused in frame to the
(§3) coding sequence of glutathione S-transferase (GST) of the Escherichia coli (E. coli)
(§4) expression vector, pGEX-6P (GE Healthcare).
(§5) point mutants, pGEX-6P-PTPRZ-ICR was used as a template with a Quikchange
(§6) multisite-directed mutagenesis kit (Stratagene).

PTPRZ-ICR [2] = molecular target: T1, PTPRZ-ICR; assay: Mass spectrometry under non-denaturing conditions (native MS) binding
Description: PTPRZ-ICR was mixed with the indicated compounds, and their binding to PTPRZ-ICR was monitored by MS under non-denaturing conditions. […] The concentrations of PTPRZ-ICR proteins used for the assay were estimated to be approximately 0.2 to 0.3 μM by SDS-PAGE followed by CBB staining.
Ten microliter aliquots were mixed with equal volumes of each compound solution, and the samples were immediately analyzed by nanoflow electrospray using in-house made gold-coated glass capillaries (~2 μl sample was loaded for each analysis). […] Spectra were calibrated using 1 mg/ml cesium iodide, and analyzed by Mass Lynx software (Waters).

C6 glioblastoma cells = assay: Cell proliferation assay; format: cell-based, rat; conditions: parent C6 cells, liposome delivery
human PTPN6 = molecular target: T2, human PTPN6 (Homo sapiens, UniProt P29350); assay: PTP selectivity assay with DiFMUP substrate
T2 sequence (P29350 220-523): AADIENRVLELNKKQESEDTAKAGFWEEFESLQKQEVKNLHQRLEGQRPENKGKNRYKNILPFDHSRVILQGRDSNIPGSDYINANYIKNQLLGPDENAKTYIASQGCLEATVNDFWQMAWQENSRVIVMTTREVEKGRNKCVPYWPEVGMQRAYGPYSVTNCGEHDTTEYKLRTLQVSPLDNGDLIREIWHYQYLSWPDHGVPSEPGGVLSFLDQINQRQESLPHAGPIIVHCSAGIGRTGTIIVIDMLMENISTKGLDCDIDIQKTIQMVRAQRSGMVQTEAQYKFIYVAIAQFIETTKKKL
Description: (§7) Human PTPRZ-ICR (0.1 nM) was added to the substrate solution (closed arrowheads), and was followed by the addition of test compounds at the indicated concentrations (open arrowheads). The slope of the fluorescence signal during the 40 s before and after the addition of a compound was measured, and the inhibitory effects of each compound were determined by the ratio of the two. […] The inhibition assay was performed with 20 μM DiFMUP, a non-specific PTP substrate.
(§8) pCAP substrate, and DMSO were 10 µg/ml, 20 µM, and 1% (v/v), respectively.
(§9) Fluorescence was measured at excitation/emission wavelengths of 380/460 nm
(§10) using an EnVision Multilabel Reader (PerkinElmer).
(§11) calculated by nonlinear regression (JMP software, SAS Institute).
(§12) type was analyzed by a Lineweaver-Burk plot according to Michaelis-Menten
(§13) BSA, 5 mM DTT and 0.01% Brij-35) with DiFMUP
(§14) (6,8-difluoro-4-methylumbiliferyl phosphate, Molecular probe) as a nonspecific PTP
(§15) substrate. One hundred microliters of 40 µM DiFMUP were preincubated in a
cuvette at room temperature.
(§16) In each experiment, the hydrolysis of DiFMUP
(§17) was continuously monitored for ~100 s as an increase in fluorescence at 455 nm
(§18) (excitation at 358 nm) using a spectrofluorometer (FI-4500, Hitachi). We
(§19) measured the slope of the linear increase of the fluorescence signal as an indicator
(§20) of catalytic activity. IC50 values were determined as above.

PTPRZ-ICR [3] = molecular target: T1, PTPRZ-ICR; assay: Hydrolysis of pCAP-GIT1_549–556 by human PTPRZ-ICR, IC50 and kinetic analysis
Description: as §7
(§21) min with 1 M Tris HCl, pH 9.2 (20 µl). The final concentrations of compounds, the
as §8, §9
(§22) using an EnVision Multilabel Reader (PerkinElmer). A decrease of more than
(§23) 40% in the signal intensity against the DMSO control was considered to be a
(§24) potential hit, and reproducibility was examined with a freshly prepared stock.
(§25) three-component buffer at pH 7.0 using a 384-well plate. The reaction was […]
(§26) calculated by nonlinear regression (JMP software, SAS Institute). […]
(§27) type was analyzed by a Lineweaver-Burk plot according to Michaelis-Menten […]
(§28) was continuously monitored for ~100 s as an increase in fluorescence at 455 nm […]
as §19, §20

mouse PTPRB = mouse PTPRB (Mus musculus, UniProt B2RU80); assay: PTP selectivity assay with DiFMUP substrate
Sequence of mouse PTPRB (B2RU80 1644-1997 limits assumed): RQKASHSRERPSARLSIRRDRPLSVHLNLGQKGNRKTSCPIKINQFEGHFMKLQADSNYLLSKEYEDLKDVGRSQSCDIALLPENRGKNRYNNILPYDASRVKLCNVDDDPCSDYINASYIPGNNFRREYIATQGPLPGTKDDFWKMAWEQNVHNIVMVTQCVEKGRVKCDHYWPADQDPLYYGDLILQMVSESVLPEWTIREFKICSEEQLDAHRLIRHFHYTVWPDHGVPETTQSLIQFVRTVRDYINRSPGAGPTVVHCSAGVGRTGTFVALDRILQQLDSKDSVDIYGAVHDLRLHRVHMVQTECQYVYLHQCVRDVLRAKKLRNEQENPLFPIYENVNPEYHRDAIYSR
Description: as §7, §8, §9, §10, §11, §12, §13, §14, §15
cuvette at room temperature.
as §16, §17, §18, §19, §20

human PTPRG = human PTPRG (Homo sapiens, UniProt P23470); assay: PTP selectivity assay with DiFMUP substrate
Sequence of human PTPRG (P23470 790-1445): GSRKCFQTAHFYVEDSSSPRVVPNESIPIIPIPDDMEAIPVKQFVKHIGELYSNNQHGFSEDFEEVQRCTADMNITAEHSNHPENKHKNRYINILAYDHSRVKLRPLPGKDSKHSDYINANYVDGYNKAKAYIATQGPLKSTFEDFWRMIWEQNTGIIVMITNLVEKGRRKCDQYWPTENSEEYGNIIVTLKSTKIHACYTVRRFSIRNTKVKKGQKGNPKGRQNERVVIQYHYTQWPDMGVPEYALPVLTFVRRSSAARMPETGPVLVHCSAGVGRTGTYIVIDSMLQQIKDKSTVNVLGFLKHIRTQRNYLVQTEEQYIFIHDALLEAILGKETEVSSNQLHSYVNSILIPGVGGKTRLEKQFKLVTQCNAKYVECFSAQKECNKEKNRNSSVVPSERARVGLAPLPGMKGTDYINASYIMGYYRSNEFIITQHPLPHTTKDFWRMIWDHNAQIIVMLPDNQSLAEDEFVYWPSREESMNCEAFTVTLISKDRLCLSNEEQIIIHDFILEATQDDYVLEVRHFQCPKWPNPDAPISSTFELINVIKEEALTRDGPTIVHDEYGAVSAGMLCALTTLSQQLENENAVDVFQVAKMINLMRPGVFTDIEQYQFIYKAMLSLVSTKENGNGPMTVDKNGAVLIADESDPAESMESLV
Description: as §7, §21, §8, §9, §22, §23, §24, §25, §26, §27, §28, §19, §20

human PTPRS = molecular target: T3, human PTPRS (Homo sapiens, UniProt Q13332); assay: PTP selectivity assay with DiFMUP substrate
T3 sequence (Q13332 1304-1948): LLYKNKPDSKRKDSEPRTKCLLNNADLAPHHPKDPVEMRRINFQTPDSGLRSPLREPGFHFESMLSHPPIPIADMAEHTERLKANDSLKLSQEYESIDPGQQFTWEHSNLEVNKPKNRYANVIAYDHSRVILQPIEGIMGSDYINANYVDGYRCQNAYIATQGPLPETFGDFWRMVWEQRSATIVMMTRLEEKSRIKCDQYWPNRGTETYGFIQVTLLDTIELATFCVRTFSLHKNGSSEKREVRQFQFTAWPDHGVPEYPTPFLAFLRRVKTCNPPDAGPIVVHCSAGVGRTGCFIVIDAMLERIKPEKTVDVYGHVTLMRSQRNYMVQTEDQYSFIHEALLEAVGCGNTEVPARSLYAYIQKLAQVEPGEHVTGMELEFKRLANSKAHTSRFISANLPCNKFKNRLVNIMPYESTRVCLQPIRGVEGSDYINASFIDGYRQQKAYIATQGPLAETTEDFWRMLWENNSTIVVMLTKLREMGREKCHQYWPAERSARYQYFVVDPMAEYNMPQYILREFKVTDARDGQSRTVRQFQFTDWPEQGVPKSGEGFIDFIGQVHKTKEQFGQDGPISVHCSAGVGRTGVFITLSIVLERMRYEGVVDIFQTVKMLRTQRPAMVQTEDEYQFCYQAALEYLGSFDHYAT
Description: as §7, §8, §9, §10, §11, §12, §13, §14, §15
cuvette at room temperature.
as §16, §17, §18, §19, §20

[4] = Parallel artificial membrane permeability assay (PAMPA); format: in vitro ADME
PTPRZ-ICR [5] = molecular target: T1, PTPRZ-ICR; assay: Isothermal titration calorimetry
Description: Titration isotherm (with error bars). The isotherm was fit to a one-to-one binding model (solid line) using the program SEDPHAT (ref. [48]) with a 1:1 binding model (B). The single dissociation constant and enthalpy change are indicated in the inset. Residuals calculated by subtracting fit values from observed values (C).
The titration sequence included a single 0.4 μl injection followed by 19 injections of 2 μl each at an interval of 120 s between the injections.

human PTPRM = human PTPRM (Homo sapiens, UniProt P28827); assay: PTP selectivity assay with DiFMUP substrate
Sequence of human PTPRM (P28827 765-1452): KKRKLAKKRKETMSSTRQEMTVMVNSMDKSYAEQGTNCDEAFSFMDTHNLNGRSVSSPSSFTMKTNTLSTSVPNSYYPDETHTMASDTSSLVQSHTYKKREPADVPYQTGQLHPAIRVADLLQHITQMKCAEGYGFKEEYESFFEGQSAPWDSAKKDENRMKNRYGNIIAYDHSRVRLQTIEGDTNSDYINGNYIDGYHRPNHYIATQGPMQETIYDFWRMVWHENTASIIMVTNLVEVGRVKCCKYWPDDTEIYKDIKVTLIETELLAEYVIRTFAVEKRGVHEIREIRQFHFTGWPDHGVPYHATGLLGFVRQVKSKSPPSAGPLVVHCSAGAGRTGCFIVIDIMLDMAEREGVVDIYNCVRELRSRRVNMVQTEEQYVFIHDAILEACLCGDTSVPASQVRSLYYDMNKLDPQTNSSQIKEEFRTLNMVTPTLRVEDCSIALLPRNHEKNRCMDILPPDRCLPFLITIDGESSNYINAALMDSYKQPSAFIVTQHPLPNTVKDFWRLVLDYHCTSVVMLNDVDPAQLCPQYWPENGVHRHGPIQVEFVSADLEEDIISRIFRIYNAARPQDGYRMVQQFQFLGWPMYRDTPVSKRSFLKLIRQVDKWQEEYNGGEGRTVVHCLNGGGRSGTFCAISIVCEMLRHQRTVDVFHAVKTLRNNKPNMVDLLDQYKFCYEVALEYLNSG
Description: as §7, §21, §8, §9, §22, §23, §24, §25, §26, §27, §28, §19, §20

human PTPRA = human PTPRA (Homo sapiens, UniProt P18433); assay: PTP selectivity assay with DiFMUP substrate
Description: as §7, §21, §8, §9, §22, §23, §24, §25, §26, §27, §28, §19, §20

C6 cells = assay: Stability of SCB4380 in C6 cells, time-lapse microscopy after microinjection; format: cell-based, rat
[6] = as above; format: cell-based, rat; conditions: rat; after direct microinjection, time-lapse microscopy; read-out: Average half-life for disappearance of the fluorescent signal in C6 cells
PTPRZ = PTPRZ (Homo sapiens, UniProt P23471, DEL1723-1729); assay: PTP selectivity assay with DiFMUP substrate
Sequence of PTPRZ (P23471 1698-2308 isoform P23471-2 limits assumed, stated change not applied): as the sequence (P23471 1698-2308 isoform P23471-2 limits assumed, stated change not applied) above
Description: as §7, §21, §8, §9, §22, §23, §24, §25, §26, §27, §28, §19, §20

human PTPN1 = molecular target: T4, human PTPN1 (Homo sapiens, UniProt P18031); assay: PTP selectivity assay with DiFMUP substrate
T4 sequence (P18031 1-321): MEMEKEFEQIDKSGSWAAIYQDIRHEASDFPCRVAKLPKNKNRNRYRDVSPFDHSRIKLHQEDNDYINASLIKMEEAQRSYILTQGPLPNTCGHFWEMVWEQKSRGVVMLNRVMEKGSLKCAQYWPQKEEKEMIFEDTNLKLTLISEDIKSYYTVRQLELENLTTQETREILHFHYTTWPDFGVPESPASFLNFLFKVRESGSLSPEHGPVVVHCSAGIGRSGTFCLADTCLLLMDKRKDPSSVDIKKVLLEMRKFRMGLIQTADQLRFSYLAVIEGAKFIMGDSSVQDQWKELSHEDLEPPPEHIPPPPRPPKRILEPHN
Description: as §7, §8, §9, §10, §11, §12, §13, §14, §15
cuvette at room temperature.
as §16, §17, §18, §19, §20

PTPRZ-ICR Y1756F mutant = PTPRZ-ICR Y1756F mutant (Homo sapiens, UniProt P23471, DEL1723-1729/Y1756F); assay: Inhibitor sensitivity of site-directed mutant, pCAP assay; conditions: compounds 10 μM or vanadate 200 μM, 20 μM pCAP-GIT1_549–556
Sequence of PTPRZ-ICR Y1756F mutant (P23471 1698-2308 isoform P23471-2 Y1749F limits assumed): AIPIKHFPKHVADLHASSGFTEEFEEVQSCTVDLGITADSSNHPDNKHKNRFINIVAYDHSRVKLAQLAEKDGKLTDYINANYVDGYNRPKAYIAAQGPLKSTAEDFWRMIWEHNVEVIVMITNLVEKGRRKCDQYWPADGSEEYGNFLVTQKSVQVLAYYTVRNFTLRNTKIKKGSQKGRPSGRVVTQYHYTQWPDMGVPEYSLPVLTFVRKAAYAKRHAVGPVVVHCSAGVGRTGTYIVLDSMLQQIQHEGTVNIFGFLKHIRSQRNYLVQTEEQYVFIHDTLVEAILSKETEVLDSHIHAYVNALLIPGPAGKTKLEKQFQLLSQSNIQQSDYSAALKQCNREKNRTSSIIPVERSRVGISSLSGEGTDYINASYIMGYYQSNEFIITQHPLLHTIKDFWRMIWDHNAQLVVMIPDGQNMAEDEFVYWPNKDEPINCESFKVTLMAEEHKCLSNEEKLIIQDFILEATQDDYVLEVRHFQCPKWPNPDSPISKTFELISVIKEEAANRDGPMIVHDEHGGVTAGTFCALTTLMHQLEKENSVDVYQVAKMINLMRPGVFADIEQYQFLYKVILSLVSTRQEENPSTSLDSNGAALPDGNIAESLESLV
Description: (G) Inhibitor sensitivity.
as §1, §2, §3, §4, §5, §6

Nc1ccc(S(=O)(=O)O)c2ccccc12 [compound 9, 4-amino-1-naphthalenesulfonic acid]
Inhibitory effect on hydrolysis of pCAP-GIT1_549–556 (residual enzymatic activity relative to DMSO control) (PTPRZ-ICR [1]): no inhibition

O=S(=O)([O-])c1ccc2cc(O)c(S(=O)(=O)[O-])cc2c1.[Na+].[Na+] [compound 8, disodium 3-hydroxy-2,7-naphthalenedisulfonate]
Inhibitory effect on hydrolysis of pCAP-GIT1_549–556 (residual enzymatic activity relative to DMSO control) (PTPRZ-ICR [1]): no inhibition

O=S(=O)([O-])c1ccc(N=Nc2c(O)ccc3ccccc23)c2ccccc12.[Na+] [compound 4, sodium 4-(2-hydroxy-1-naphthalenylazo)-1-naphthalenesulfonate]
Inhibitor sensitivity of N1758D mutant versus wild-type enzyme (PTPRZ-ICR N1758D mutant): no changes in sensitivity

O=S(=O)([O-])c1cc(S(=O)(=O)[O-])c2c(N=Nc3ccc(S(=O)(=O)[O-])c4ccccc34)c(O)ccc2c1.[Na+].[Na+].[Na+] [compound 2, trisodium 7-hydroxy-8-[(4-sulfonato-1-naphthyl)diazenyl]-1,3-naphthalenedisulfonate]
Binding to PTPRZ-ICR by native MS (PTPRZ-ICR [2]): no binding activity | Inhibitory effect on hydrolysis of pCAP-GIT1_549–556 (residual enzymatic activity relative to DMSO control) (PTPRZ-ICR [1]): almost no inhibition | Proliferation of C6 glioblastoma cells (increase in cell number in 24 h) (C6 glioblastoma cells): did not show suppressive effects

O=S(=O)([O-])c1ccc2c(N=Nc3ccc(S(=O)(=O)[O-])c4ccccc34)c(O)ccc2c1.[Na+].[Na+] [compound 3, disodium 6-hydroxy-5-[(4-sulfonato-1-naphthyl)diazenyl]-2-naphthalene sulfonate]
Inhibitor sensitivity of N1758D mutant versus wild-type enzyme (PTPRZ-ICR N1758D mutant): no changes in sensitivity | Binding to PTPRZ-ICR by native MS (PTPRZ-ICR [2]): no binding activity

O=[N+]([O-])c1ccc(N=Nc2c(O)c(S(=O)(=O)[O-])cc3cc(S(=O)(=O)[O-])ccc23)cc1.[Na+].[Na+] [compound 6, sodium 3-hydroxy-4-[(4-nitrophenyl)diazenyl]-2,7-naphthalenedisulfonate]
Inhibitory effect on hydrolysis of pCAP-GIT1_549–556 (residual enzymatic activity relative to DMSO control) (PTPRZ-ICR [1]): markedly abolished inhibitory activity; also recorded: weakly inhibited

O=Nc1c(O)c(S(=O)(=O)O)cc2cc(S(=O)(=O)O)ccc12 [compound 7, disodium 1-nitroso-2-naphthol-3,6-disulfonate monohydrate]
Inhibitory effect on hydrolysis of pCAP-GIT1_549–556 (residual enzymatic activity relative to DMSO control) (PTPRZ-ICR [1]): no inhibition

O=S(=O)([O-])c1ccc2c(N=Nc3ccc(S(=O)(=O)[O-])c4ccccc34)c(O)c(S(=O)(=O)[O-])cc2c1.[Na+].[Na+].[Na+] [SCB4380, trisodium 3-hydroxy-4-[(4-sulfonato-1-naphthyl)diazenyl]-2,7-naphthalenedisulfonate]
IC50 (human PTPN6): 24.6 µM | IC50 (PTPRZ-ICR [3]): 400 nM | Inhibition type by Lineweaver-Burk plot analysis (PTPRZ-ICR [3]; human PTPRZ-ICR, pCAP-peptide substrate): competitive | IC50 (mouse PTPRB): 73.8 µM | Inhibitor sensitivity of N1758D mutant versus wild-type enzyme (PTPRZ-ICR N1758D mutant): resistant to inhibition | Binding to PTPRZ-ICR by native MS (PTPRZ-ICR [2]): bound to Z-ICR in a one-to-one stoichiometry | IC50 (human PTPRG): 400 nM | IC50 (human PTPRS): 14.8 µM | Membrane permeability [4]: deficient and low | Kd (PTPRZ-ICR [5]): 1230 nM | ΔH (enthalpy change, ITC) (PTPRZ-ICR [5]; 298.15 K, pH 7.5): -58.4 kJ/mol | IC50 (human PTPRM): 60.7 µM | IC50 (human PTPRA): 75.7 µM | Stability in living cells (C6 cells): substantial instability | half-life [6]: ~50 min | IC50 (PTPRZ): 400 nM | IC50 (human PTPN1): 19.5 µM | Inhibitor sensitivity of Y1756F mutant versus wild-type enzyme (PTPRZ-ICR Y1756F mutant): impaired the inhibition by SCB4380 markedly

O=S(=O)(O)c1cccc2ccccc12 [compound 10, sodium 1-naphthalenesulfonate]
Inhibitory effect on hydrolysis of pCAP-GIT1_549–556 (residual enzymatic activity relative to DMSO control) (PTPRZ-ICR [1]): no inhibition

[O]=[V]([O-])([O-])[O-] [vanadate, reference compound]
Inhibitor sensitivity of Y1756F mutant versus wild-type enzyme (PTPRZ-ICR Y1756F mutant): not by vanadate

O=S(=O)([O-])c1ccc2c(N=Nc3cccc4ccccc34)c(O)c(S(=O)(=O)[O-])cc2c1.[Na+].[Na+] [compound 5, disodium 3-hydroxy-4-(1-naphthyldiazenyl)-2,7-naphthalenedisulfonate]
Inhibitor sensitivity of N1758D mutant versus wild-type enzyme (PTPRZ-ICR N1758D mutant): resistant to inhibition | Inhibitory effect on hydrolysis of pCAP-GIT1_549–556 (residual enzymatic activity relative to DMSO control) (PTPRZ-ICR [1]): markedly abolished inhibitory activity | Inhibitory effect on hydrolysis of pCAP-GIT1_549–556 (residual enzymatic activity relative to DMSO control) (PTPRZ-ICR [1]; listed as Compound 5): weakly inhibited
